According to PMC11327196, “A phase 1 study to assess the absolute bioavailability, mass balance, pharmacokinetics, metabolism, and excretion of [^14C]-mobocertinib, an oral inhibitor of EGFR exon 20 insertion mutations, in healthy participants” (Investigational New Drugs, 2024):

Assay: Period 1: excretion in urine and feces after IV [14C]-mobocertinib
Assay type: in vivo, human
Conditions: Period 1, IV infusion 50 µg (~2 µCi) [14C]-mobocertinib
Method: On Day 1 of Period 1, following an overnight fast of at least 10 h, participants received a single 160 mg dose of non-radiolabeled mobocertinib as capsules. At 3.75 h post oral dosing (i.e., 15 min before the median oral tmax of ~ 4 h), participants received a nominal dose of 50 µg (~ 2 µCi) [^14C]-mobocertinib as a 15-minute IV infusion. However, due to nonspecific binding of [^14C]-mobocertinib to the dosing syringe and tubing, actual doses administered ranged from 36.8 to 38.7 µg (1.47 to 1.55 µCi). Participants were required to stay in the clinic from Day − 1 through at least the 96-hour blood draw (Day 5) or until a discharge criterion was met (i.e., ≥ 80% of the total administered radioactive dose was recovered in urine and fecal samples or excretion of radioactivity in urine and feces combined had declined to ≤ 1% of the total administered dose per day for ≥ 2 consecutive intervals), up to a maximum of 7 days postdose (Day 8). Blood samples for the measurement of plasma mobocertinib, AP32960, and AP32914 concentrations were collected predose and at 0.5, 1, 2, 3, 4, 5, 6, 8, 12, 24, 36, 48, 72, and 96 h after oral administration. Additional blood samples to determine [^14C]-total radioactivity, [^14C]-mobocertinib, [^14C]-AP32960, and [^14C]-AP32914 in plasma were collected at 3.75 h after oral dosing (i.e., predose for [^14C] assessments), at the end of the IV infusion, and at 10, 20, and 30 min, and 1, 2, 4, 8, 20, 32, 44, 68, and 92 h after the end of infusion. […]
Plasma, whole blood, and urine samples were assayed for mobocertinib, AP32960, and AP32914 concentrations using liquid chromatography-tandem mass spectrometry (Q2 Solutions, Ithaca, New York, USA). […] Urine and fecal samples were assayed for total radioactivity following the IV dose of [^14C]-mobocertinib in Period 1, and whole blood, plasma, urine, and fecal samples were assayed for total radioactivity following the oral dose of [^14C]-mobocertinib in Period 2 using liquid scintillation counting (LSC; Celerion, Lincoln, Nebraska, USA; LLOQs: Period 1 urine: 0.115–0.118 ng eq/g, feces: 0.720–0.759 ng eq/g; Period 2 whole blood: 87.3–112 ng eq/g, plasma: 116–132 ng eq/mL, urine: 37.8–46.8 ng eq/g, feces: 110–336 ng eq/g across participants). Urine and fecal samples collected in Period 1 that had total radioactivity concentration equivalents below the LLOQ of the Celerion LSC assay were sent to Pharmaron for measurement by AMS (LLOQ: urine: 0.0000253–0.00111 ng eq/g; feces: 0.000404–0.0278 ng eq/g across participants). […]

[^14C]-mobocertinib
administered radioactive dose excreted in urine as analyte: 1.5% | dose recovered as total radioactivity in feces overall: 69.9% | dose recovered as total radioactivity in urine overall: 4.7% | radioactive dose excreted in feces as analyte: 2.5%
